# Reference: PubChem BioAssay (NCI)
# Where “and” joins values, the source holds several entries; their conditions need not be identical. Equal entries are not always repeated.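 Where inhibition never reached the appropriate level, the endpoint shown equals the highest concentration tested. Otherwise, values were interpolated linearly from a five-concentration, 48-hour dose response in 96-well plates. GI50: concentration for 50% inhibition of growth. TGI denotes the concentration required for complete inhibition of growth.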
# What was measured:
# Assay in all cases: growth of human tumour cells (NCI), 48 h
# [1] = tested on: EKVX NSCLC
# [2] = tested on: OVCAR-8 ovarian
# [3] = tested on: PC-3 prostate
# [4] = tested on: RXF 393 renal
# [5] = tested on: NCI-H23 lung
# [6] = tested on: UACC-62 melanoma
# [7] = tested on: SF-295 CNS
# [8] = tested on: A498 renal
# [9] = tested on: HCT-116 colon
# [10] = tested on: NCI-H460 lung
# [11] = tested on: MDA-MB-435
# [12] = tested on: UO-31 renal
# [13] = tested on: TK-10 renal
# [14] = tested on: OVCAR-4 ovarian
# [15] = tested on: SF-539 CNS
# [16] = tested on: SF-268 CNS
# [17] = tested on: SK-OV-3 ovarian
# [18] = tested on: U251 CNS
# [19] = tested on: UACC-257 melanoma
# [20] = tested on: OVCAR-5 ovarian
# [21] = tested on: HCT-15 colon
# [22] = tested on: CAKI-1 renal
# [23] = tested on: IGROV1 ovarian
# [24] = tested on: SNB-75 CNS
# [25] = tested on: MCF7 breast
# [26] = tested on: 786-0 renal
# [27] = tested on: HOP-92 NSCLC
# [28] = tested on: SN12C renal
# [29] = tested on: NCI-H522 lung
# [30] = tested on: MALME-3M melanoma
# [31] = tested on: SNB-19 CNS
# [32] = tested on: CCRF-CEM leukemia
# [33] = tested on: HT29 colon
# [34] = tested on: BT-549 breast
# [35] = tested on: NCI/ADR-RES ovarian
# [36] = tested on: SK-MEL-2 melanoma
# [37] = tested on: K-562 leukemia
# [38] = tested on: SK-MEL-5 melanoma
# [39] = tested on: LOX IMVI melanoma
# [40] = tested on: SW-620 colon
# [41] = tested on: T-47D breast
# [42] = tested on: MOLT-4 leukemia
# [43] = tested on: HL-60(TB) leukemia
# [44] = tested on: DU-145 prostate
# [45] = tested on: SR leukemia
# [46] = tested on: KM12 colon
# [47] = tested on: COLO 205 colon
# [48] = tested on: OVCAR-3 ovarian
# [49] = tested on: SK-MEL-28 melanoma
# [50] = tested on: MDA-MB-231 breast
# [51] = tested on: NCI-H226 lung
# [52] = tested on: A549 NSCLC
# [53] = tested on: M14 melanoma
# [54] = tested on: HCC-2998 colon
# [55] = tested on: RPMI-8226 leukemia
# [56] = tested on: HS 578T breast
# [57] = tested on: ACHN renal
structure (smiles),measurement,setting,value
CN1CC[C@H](N(C)C(=O)N2CC(c3cc(F)ccc3F)=C[C@@]2(CO)c2ccccc2)[C@H](F)C1,TGI,[1],> 100 µM
same,GI50,[2],0.058 µM
same,TGI,[2],> 100 µM
same,GI50,[3],0.0409 µM
same,TGI,[3],> 100 µM
same,GI50,[4],0.0052 µM
same,TGI,[4],5.13 µM
same,GI50,[5],0.0371 µM
same,TGI,[5],> 100 µM
same,GI50,[6],0.0386 µM
same,TGI,[6],25 µM
same,GI50,[7],0.0148 µM
same,TGI,[7],18.2 µM
same,GI50,[8],0.0211 µM
same,TGI,[8],24.8 µM
same,GI50,[9],0.00335 µM
same,TGI,[9],> 100 µM
same,GI50,[10],0.0308 µM
same,TGI,[10],> 100 µM
same,GI50,[11],0.00258 µM
same,TGI,[11],0.00772 µM
same,GI50,[12],7.74 µM
same,TGI,[12],> 100 µM
same,GI50,[13],27.7 µM
same,TGI,[13],> 100 µM
same,GI50,[14],20.5 µM
same,TGI,[14],> 100 µM
same,GI50,[15],0.00498 µM
same,GI50,[16],0.0279 µM
same,TGI,[16],> 100 µM
same,GI50,[17],0.00588 µM
same,TGI,[17],> 100 µM
same,TGI,[18],> 100 µM
same,TGI,[19],41.4 µM
same,GI50,[20],0.0669 µM and 0.0212 µM
same,TGI,[20],> 100 µM
same,GI50,[21],0.00418 µM
same,TGI,[21],> 100 µM
same,GI50,[22],0.0459 µM
same,TGI,[22],> 100 µM
same,TGI,[23],> 100 µM
same,GI50,[24],0.0402 µM
same,TGI,[24],34.9 µM
same,GI50,[25],0.00333 µM
same,TGI,[25],77.6 µM
same,GI50,[26],0.0072 µM
same,TGI,[26],> 100 µM
same,GI50,[27],0.143 µM
same,TGI,[27],79.7 µM
same,GI50,[28],0.0631 µM
same,TGI,[28],> 100 µM
same,GI50,[29],0.00871 µM
same,TGI,[30],27.9 µM
same,GI50,[31],0.0259 µM
same,TGI,[31],> 100 µM
same,GI50,[32],0.017 µM
same,TGI,[32],> 100 µM
same,GI50,[33],0.0411 µM
same,TGI,[33],> 100 µM
same,GI50,[34],0.0421 µM
same,TGI,[34],37.7 µM
same,GI50,[35],0.0205 µM
same,TGI,[35],1.3 µM
same,GI50,[36],0.0282 µM
same,TGI,[36],79.4 µM
same,GI50,[37],0.00744 µM
same,TGI,[37],> 100 µM
same,GI50,[38],0.00471 µM
same,TGI,[38],14.1 µM
same,GI50,[39],0.0415 µM
same,TGI,[39],> 100 µM
same,GI50,[40],0.00854 µM
same,TGI,[40],> 100 µM
same,GI50,[41],0.0635 µM
same,TGI,[41],> 100 µM
same,GI50,[42],0.0377 µM
same,TGI,[42],> 100 µM
same,GI50,[43],0.0337 µM
same,TGI,[43],> 100 µM
same,GI50,[44],0.033 µM
same,TGI,[44],35.4 µM
same,GI50,[45],0.00871 µM
same,TGI,[45],40.5 µM
same,GI50,[46],0.0277 µM
same,TGI,[46],> 100 µM
same,TGI,[47],3.77 µM
same,GI50,[48],0.0196 µM
same,TGI,[49],28.3 µM
same,GI50,[50],0.0112 µM
same,TGI,[50],15.3 µM
same,GI50,[51],40.4 µM
same,TGI,[51],> 100 µM
same,GI50,[52],0.0383 µM
same,TGI,[52],> 100 µM
same,GI50,[53],0.00202 µM
same,TGI,[53],0.00507 µM
same,GI50,[54],0.037 µM
same,TGI,[54],13.4 µM
same,GI50,[55],0.0294 µM
same,TGI,[55],40.8 µM
same,GI50,[56],0.0293 µM
same,TGI,[56],7.88 µM
same,GI50,[57],0.0373 µM and 0.0195 µM
same,TGI,[57],> 100 µM
